Data taken from publication PMC4072508, “Genome-Wide Prediction and Validation of Peptides That Bind Human Prosurvival Bcl-2 Proteins” (PLoS Computational Biology, 2014).
pKd: −log10 of the molar value. Where two headings read alike, the source gives them in different places. No end group written: not given here.

Experiments:
Bcl-w = target: T1, Bcl-w (Homo sapiens, UniProt Q92843, Q133R); test: Fluorescence polarization direct binding; conditions: for Best-fit KD, Bcl-w / Kd: FP direct binding, 10 nM FAM-labeled peptide, receptor titrated, 25°C, pH 7.8, fit of all replicate titrations, X+number in a cell = highest concentration (nM) measured with no binding detected, given here as >, SPNS1 fit to raw fluorescence; for Kd: read-out: Best-fit KD, Bcl-w
T1 construct: myc-Bcl-w SPOT array & FP; made in house
T1 sequence (Q92843 with tags, fused parts or gaps Q133R): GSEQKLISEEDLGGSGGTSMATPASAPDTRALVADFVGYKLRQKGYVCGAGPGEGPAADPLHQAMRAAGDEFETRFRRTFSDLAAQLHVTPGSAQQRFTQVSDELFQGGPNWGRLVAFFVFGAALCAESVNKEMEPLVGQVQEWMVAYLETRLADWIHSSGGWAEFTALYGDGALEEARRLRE
Procedure: (§1) Peptides were purified by reverse-phase HPLC using a C18 column and a linear water/acetonitrile gradient. We re-analyzed the purified peptide by mass spectrometry if there was not a single well-defined peak in HPLC chromatogram.
(§2) Fluorescence polarization (FP) assays were done at 25°C in assay buffer (20 mM NaPO4, 50 mM NaCl, 1 mM EDTA, 0.001% Triton X (v/v), pH 7.8). […] For all FP experiments, the total well volume was 120 µl. […] Anisotropy was measured using a Spectramax M5 plate reader from Molecular Devices.
(§3) Direct binding curves were fit using Pylab/Scipy/Optimize to a single-site binding model utilized previously.
(§4) ^1Best-fit KD values determined by combining all replicate titration curves and fitting to a direct binding model (see Methods). […] Values with an X followed by a number indicate the highest concentration (the number, in nM) for which signal was measured yet no binding was detected.

Mcl-1 [1] = target: T2, Mcl-1 (Homo sapiens, UniProt Q07820); test: Fluorescence polarization direct binding
T2 construct: myc-Mcl-1 SPOT array & FP; made in house
Procedure: as §1, §2, §3, §4

Bcl-xL [2] = target: T3, Bcl-xL (Homo sapiens, UniProt Q07817); test: Fluorescence polarization direct binding; conditions: for Best-fit KD, Bcl-xL / Kd: FP direct binding, 10 nM FAM-labeled peptide, receptor titrated, 25°C, pH 7.8, fit of all replicate titrations, X+number in a cell = highest concentration (nM) measured with no binding detected, given here as >, SPNS1 fit to raw fluorescence; for Kd: read-out: Best-fit KD, Bcl-xL
T3 construct: myc-Bcl-xL SPOT array & FP; made in house
Procedure: as §1, §2, §3, §4

Bcl-2 = target: T4, Bcl-2 (Homo sapiens, UniProt P10415, DEL53-91); test: Fluorescence polarization direct binding; conditions: for Best-fit KD, Bcl-2 / Kd: FP direct binding, 10 nM FAM-labeled peptide, receptor titrated, 25°C, pH 7.8, fit of all replicate titrations, X+number in a cell = highest concentration (nM) measured with no binding detected, given here as >, SPNS1 fit to raw fluorescence; for Kd: read-out: Best-fit KD, Bcl-2
T4 construct: myc- Bcl-2 FP; made in house
Procedure: as §1, §2, §3, §4

Bfl-1 = target: T5, Bfl-1 (Homo sapiens, UniProt Q16548); test: Fluorescence polarization direct binding; conditions: for Kd: FP direct binding, 10 nM FAM-labeled peptide, receptor titrated, 25°C, pH 7.8, fit of all replicate titrations, X+number in a cell = highest concentration (nM) measured with no binding detected, given here as >, SPNS1 fit to raw fluorescence, read-out: Best-fit KD, Bfl-1
T5 construct: myc- Bfl-1 SPOT array & FP; made in house
T5 sequence (Q16548 with tags, fused parts or gaps): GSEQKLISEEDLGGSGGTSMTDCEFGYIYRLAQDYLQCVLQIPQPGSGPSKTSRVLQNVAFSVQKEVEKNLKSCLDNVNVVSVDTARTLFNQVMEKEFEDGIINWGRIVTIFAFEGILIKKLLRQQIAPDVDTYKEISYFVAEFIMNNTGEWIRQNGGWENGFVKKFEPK
Procedure: as §1, §2, §3, §4

Mcl-1 [3] = target: T2, Mcl-1; conditions: read-out: Binder class, Mcl-1; S1 Bim variants, specific binding measured using yeast display; ref Dutta et al. (2010); cited from earlier work
From the text: Negative control mutatio ...

Bcl-xL [4] = target: T3, Bcl-xL; conditions: S1 Bim variants, specific binding measured using yeast display; ref Dutta et al. (2010); cited from earlier work
[5] = benchmark classification of peptides newly characterized in this study, read-out: Binder class, Bcl-w
[6] = Binder class, Mcl-1, benchmark classification of peptides newly characterized in this study
[7] = FP direct binding, 10 nM FAM-labeled peptide, receptor titrated, 25°C, pH 7.8, fit of all replicate titrations, X+number in a cell = highest concentration (nM) measured with no binding detected, given here as >, SPNS1 fit to raw fluorescence
[8] = benchmark classification of peptides newly characterized in this study, read-out: Binder class, Bcl-xL
[9] = benchmark classification of peptides newly characterized in this study, read-out: Binder class, Bcl-2
[10] = benchmark classification of peptides newly characterized in this study, read-out: Binder class, Bfl-1

T3 sequence (Q07817 with tags, fused parts or gaps): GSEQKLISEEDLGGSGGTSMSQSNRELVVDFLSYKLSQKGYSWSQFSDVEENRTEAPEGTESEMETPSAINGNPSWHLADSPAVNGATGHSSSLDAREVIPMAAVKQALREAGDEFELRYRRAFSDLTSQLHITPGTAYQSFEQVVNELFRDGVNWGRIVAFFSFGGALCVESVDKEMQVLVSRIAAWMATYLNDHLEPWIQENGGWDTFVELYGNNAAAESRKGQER
T2 sequence (Q07820 with tags, fused parts or gaps): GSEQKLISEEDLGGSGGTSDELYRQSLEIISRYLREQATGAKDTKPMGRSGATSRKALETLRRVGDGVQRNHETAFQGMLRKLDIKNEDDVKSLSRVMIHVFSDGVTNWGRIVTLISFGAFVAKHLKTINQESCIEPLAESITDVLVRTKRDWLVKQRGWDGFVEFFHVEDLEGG
T4 sequence (P10415 with tags, fused parts or gaps DEL53-91): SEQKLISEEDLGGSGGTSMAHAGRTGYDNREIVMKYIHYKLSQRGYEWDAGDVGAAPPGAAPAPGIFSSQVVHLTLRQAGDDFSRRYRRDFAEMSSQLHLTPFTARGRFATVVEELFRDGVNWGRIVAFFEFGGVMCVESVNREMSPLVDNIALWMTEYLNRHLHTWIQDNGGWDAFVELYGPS

| Substance | Kd (Bcl-w) [nM] | pKd (Bcl-w; [5]) | pKd (Mcl-1 [1]; [6]) | Kd (Mcl-1 [1]; [7]) [nM] | Kd (Bcl-xL [2]) [nM] | pKd (Bcl-xL [2]; [8]) | Kd (Bcl-2) [nM] | pKd (Bcl-2; [9]) | Kd (Bfl-1) [nM] | pKd (Bfl-1; [10]) | pKd (Mcl-1 [3]) | Binder class (Kd bin) (Bcl-xL [4]) [nM] | also measured |
| --- | --- | --- | --- | --- | --- | --- | --- | --- | --- | --- | --- | --- | --- |
| LRLFLAQRLRWLADSAPASRATA-NH2 [NBEAL2] | 29 | > 6.00 | 5.00 to 6.00 | 3810 | 10 | > 6.00 | 16 | > 6.00 | 3270 | 5.00 to 6.00 |  |  | Best-fit KD, Bcl-w (Bcl-w): bound tightly; Best-fit KD, Bcl-xL (Bcl-xL [2]): bound tightly; Best-fit KD, Bcl-2 (Bcl-2): bound tightly |
| LSDGLPVHLANIADELTQKKKMF-NH2 [AGBL2] | 5870 | 5.00 to 6.00 | < 5.00 | > 5030 | > 4000 | < 5.00 | > 100000 | 5.00 to 6.00 | > 4670 | < 5.00 |  |  |  |
| PEIWVAQEIERIGNEVNAYYARR |  |  |  |  |  |  |  |  |  |  | > 6.00 | > 10000 |  |
| PEIWVAQEIGRIGDETNAYYARR |  |  |  |  |  |  |  |  |  |  | > 6.00 | > 10000 |  |
| PEIWVAQEIGRIGNEINAYYARR |  |  |  |  |  |  |  |  |  |  | > 6.00 | > 10000 |  |
| PEIWVAQEINRIGEEINAYYARR |  |  |  |  |  |  |  |  |  |  | > 6.00 | > 10000 |  |
| PEIWVAQEINRVGDEVNAYYARR |  |  |  |  |  |  |  |  |  |  | > 6.00 | > 10000 |  |
| PEIWVAQEIRRVGDENNAYYARR |  |  |  |  |  |  |  |  |  |  | > 6.00 | > 10000 |  |
| PEIWVAQELERIGEEVNAYYARR |  |  |  |  |  |  |  |  |  |  | > 6.00 | > 10000 |  |
| PEIWVAQELGRDGDEFNAYYARR |  |  |  |  |  |  |  |  |  |  | < 5.00 | < 1000 |  |
| PEIWVAQELGRNGDEYNAYYARR |  |  |  |  |  |  |  |  |  |  | < 5.00 | < 1000 |  |
| PEIWVAQELGRTGDEVNAYYARR |  |  |  |  |  |  |  |  |  |  | > 6.00 | > 10000 |  |
| PEIWVAQELKRAGEEFNAYYARR |  |  |  |  |  |  |  |  |  |  | < 5.00 | < 1000 |  |
| PEIWVAQELKRNGDEFNAYYARR |  |  |  |  |  |  |  |  |  |  | < 5.00 | < 1000 |  |
| PEIWVAQELSRAGDEFNAYYARR |  |  |  |  |  |  |  |  |  |  | < 5.00 | < 1000 |  |
| PEIWVAQEVDRIGDEVNAYYARR |  |  |  |  |  |  |  |  |  |  | > 6.00 | > 10000 |  |
| PEIWYAQEAKRFGDEFNAYYARR |  |  |  |  |  |  |  |  |  |  | < 5.00 | < 1000 |  |
| PILENPEILRKTADDFLNRIALT-NH2 [CCH] | 1920 | 5.00 to 6.00 | < 5.00 | > 4000 | > 5720 | < 5.00 | 7130 | 5.00 to 6.00 | > 9610 | < 5.00 |  |  |  |
| QRKHEGFERDLAALGDKVNSLGETAE-NH2 [SPTAN1] | > 4350 | < 5.00 | < 5.00 | 3850 | > 7000 | < 5.00 | > 3050 | 5.00 to 6.00 | > 3370 | < 5.00 |  |  |  |
| RLVQQSKALKELADELQERAQRP-NH2 [TRIM58] |  |  | < 5.00 |  |  |  |  |  |  |  |  |  | pKd (Bcl-w): 6.44; pKd (Bcl-w; Binder class, Bcl-w, benchmark classification of peptides newly characterized in this study): < 5.00; pKd (Mcl-1 [1]): < 5.22; pKd (Bcl-xL [2]): 5.34; pKd (Bcl-xL [2]; Binder class, Bcl-xL, benchmark classification of peptides newly characterized in this study): 5.00 to 6.00; pKd (Bcl-2): 6.01; pKd (Bcl-2; Binder class, Bcl-2, benchmark classification of peptides newly characterized in this study): > 6.00; pKd (Bfl-1): < 5.33; pKd (Bfl-1; Binder class, Bfl-1, benchmark classification of peptides newly characterized in this study): < 5.00 |
| RSMVFARHLREVGDEFRSRHLNS-NH2 [POFUT2] | 98 | > 6.00 | < 5.00 | > 10000 | 39 | > 6.00 | 98 | > 6.00 | > 2280 | < 5.00 |  |  | Best-fit KD, Bcl-w (Bcl-w): bound tightly; Best-fit KD, Bcl-xL (Bcl-xL [2]): bound tightly; Best-fit KD, Bcl-2 (Bcl-2): bound tightly |
| RVEQMAIQIKEVGDRVNYIKRSL-NH2 [TRPM7] | 2490 | > 6.00 | < 5.00 | 592 | 679 | > 6.00 | 124 | > 6.00 | 1900 | 5.00 to 6.00 |  |  |  |
| RYRHGAPAEQLRHLADMLTTKWATLQ-NH2 [PLEKHH1] | 1400 | < 5.00 | < 5.00 | 977 | 650 | > 6.00 | 1500 | > 6.00 | > 5680 | < 5.00 |  |  |  |
| SKFVILSAHKLVFIGDTLSRQAKAAD-NH2 [BCAR1] | 3610 | > 6.00 | < 5.00 | 912 | 2540 | 5.00 to 6.00 | 2990 | 5.00 to 6.00 | 4680 | 5.00 to 6.00 |  |  |  |
| SYMVLAPVFGYLGDRYNRKYLMA-NH2 [SPNS1] | 871 | > 6.00 | > 6.00 | 19 | 96 | > 6.00 | 28 | > 6.00 | 278 | > 6.00 |  |  |  |
| THEEVVHLLRNAGDEVTITVEYL-NH2 [SNTG2] | > 6560 | < 5.00 | > 6.00 | 22 | > 4000 | < 5.00 | > 3050 | < 5.00 | > 4070 | < 5.00 |  |  | Best-fit KD, Mcl-1 (Mcl-1 [1]; [7]): bound tightly |
